The values below come from patent US11370769B2, “TRPC5 inhibitors and methods of using same” (BOARD OF REGENTS OF THE UNIVERSITY OF NEBRASKA, priority 2017, dated 2022).

Structures are written as SMILES.

This assay has as its target T1, TRPC6 channels (Rattus norvegicus, UniProt Q99N78).
T1 construct: Acutely isolated glomeruli were prepared as described above; from tissue; host or cells: acutely isolated glomeruli (podocytes) of AT1R Tg and WT rats
T1 sequence (Q99N78 1-930): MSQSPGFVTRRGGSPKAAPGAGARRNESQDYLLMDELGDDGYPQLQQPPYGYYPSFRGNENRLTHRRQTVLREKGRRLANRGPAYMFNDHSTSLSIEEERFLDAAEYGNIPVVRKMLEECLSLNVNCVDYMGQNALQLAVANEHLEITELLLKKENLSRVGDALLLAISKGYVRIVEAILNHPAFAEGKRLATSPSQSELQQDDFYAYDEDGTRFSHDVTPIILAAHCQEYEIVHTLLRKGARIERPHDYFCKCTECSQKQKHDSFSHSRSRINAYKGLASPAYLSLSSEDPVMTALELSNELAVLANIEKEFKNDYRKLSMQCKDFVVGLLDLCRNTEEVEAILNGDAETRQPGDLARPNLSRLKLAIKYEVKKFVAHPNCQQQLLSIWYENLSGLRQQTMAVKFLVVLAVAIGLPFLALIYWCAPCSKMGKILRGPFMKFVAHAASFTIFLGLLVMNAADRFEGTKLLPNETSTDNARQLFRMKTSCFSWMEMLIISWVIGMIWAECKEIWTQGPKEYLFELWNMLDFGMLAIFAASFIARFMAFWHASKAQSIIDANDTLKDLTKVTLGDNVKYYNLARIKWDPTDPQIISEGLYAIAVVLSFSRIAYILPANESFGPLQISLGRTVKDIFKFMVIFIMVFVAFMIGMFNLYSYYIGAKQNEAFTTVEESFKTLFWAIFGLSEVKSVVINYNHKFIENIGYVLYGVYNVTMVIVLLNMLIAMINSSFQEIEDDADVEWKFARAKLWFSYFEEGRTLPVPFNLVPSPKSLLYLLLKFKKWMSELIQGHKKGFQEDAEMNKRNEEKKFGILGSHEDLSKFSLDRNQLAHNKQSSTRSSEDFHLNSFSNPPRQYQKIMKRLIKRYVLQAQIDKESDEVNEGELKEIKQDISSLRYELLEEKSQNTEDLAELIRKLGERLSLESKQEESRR
Nature of the assay: Glomerular inside-out single-channel recordings, OAG-induced conductances. The assay is classed as cell-based. To be noted: glomeruli from age matched AT1R Tg rats and WT controls. The procedure: Acute glomeruli isolation and Ca^2+-imaging: WT and AT1R Tg littermates were killed and kidneys were quickly dissected and washed with ice-cold PBS. After isolation using the sieving technique as previously described (11), glomeruli were incubated with the Ca^2+ indicator Fura2-AM (1 μM; Invitrogen) at 37° C. for 15 min. The extracellular solution for Ca^2+-imaging contained (in mM) 140 NaCl, 5 KCl, 10 HEPES, 2 MgCl2, 2 CaCl2, 10 glucose, with pH7.4 adjusted with NaOH. Glomerular Ca^2+-imaging was performed using an inverted microscope (Olympus IX70) with a high-speed CCD camera (Hamamatsu Photonics). Images were taken and analyzed using the Metafluor software (Molecular Devices). It should be noted that Fura-2 is most often taken up by podocytes at the periphery of the isolated glomerulus, but the specificity of recordings in podocytes is best confirmed by patch clamp electrophysiology, as described below.
Glomerular single-channel recordings: Acutely isolated glomeruli were prepared as described above. Single-channel recordings were carried out using an Axopatch 200B and Digidata 1550A (Molecular Devices). Bath and pipette solutions for glomerular single-channel recording contained (in mM) 135 CH3SO3Na, 5 CsCl, 2 CaCl2, 1 MgCl2, 10 HEPES, and 10 glucose with pH7.4 adjusted with NaOH. […]

As for `Cc1cc(N2CCCCC2)nc2ccccc12` [ML204, reference compound], the “inhibition of OAG-induced conductances” value was “no inhibition”.
